Data reported in US12246095B2, “Oral dosage forms comprising a hops extract” (The New Zealand Institute for Plant and Food Research …, priority 2018, dated 2025).
In brackets after ≈: the same amount, converted by molar mass.

Tested on: Hutu80 enteroendocrine cells
Experiment: Intracellular calcium in Hutu80 enteroendocrine cells as marker of Tas2R activation
Type: cell-based, human
Details: for EC 50: Hutu-80, change in intracellular calcium at 5 min, doses 200 to 0.2 μM, Pacific Gem extract and purified acids
Method: The capacity for hops extracts to activate bitter taste receptors was assessed using intracellular calcium concentrations [Ca2+]i as a marker of both Tas2R activation and appetite suppressing hormone release. A screening assay was carried out to compare the effects of high alpha acid and low alpha acid hops extracts on intracellular calcium in Hutu80 enteroendocrine cells. The acid composition of the high alpha acid hops was alpha acid (13.9%), beta acid (7.4%). The acid composition of the low alpha acid hops was alpha acid (2.7%) beta acid (5.0%).
An EC50 dose response showing the relative change in intracellular calcium in Hutu80 enteroendocrine cells at 5 min following the addition of either a high alpha acid (Pacific Gem, 13.9%) or low alpha acid (Wai-iti, 2.7%) hops extract is shown in FIG. 1 and Table 1.
Activation of human TAS2Rs receptors was measured by monitoring variations in intracellular Ca^2+ concentrations ([Ca^2+]i) using a Flurostar Omega (BMG LABTECH, Germany) (excitation 485 nm/emission 520 nm).
Hutu-80 cells (Cat #HTB-40, ATCC Manassas, Virginia) were seeded in supplemented MEM (Cat #11095-080, Thermo Fisher, Walthan, Massachusetts) into Poly-Lysin-coated 96-well black wall, clear bottom plates (Cat #356640, Corning Inc. New York) at a density of 3.5×10^5 cells/ml, 100 μl/wel, cultured overnight and then loaded with the Ca^2+-sensitive fluorescent dye Fluo 4-AM (Cat #F14201, Thermo Fisher, Walthan, Massachusetts), following suppliers guidelines. […]
Compounds to test were prepared in DMSO (Cat #D8418, Sigma, St. Louis, Missouri) and transferred onto the cells immediately prior to commencing of the assay measurements. To obtain a baseline, fluorescence signals (excitation 485 nm/emission 520 nm) were measured immediately before the addition of compounds on the cells.
The change in intracellular calcium in Hutu80 enteroendocrine cells was measured at 5 min following the addition of purified hops acids at doses of 200, 63.2, 20, 6.32, 2, 0.632, 0.2 and 0 μM.

SMILES	stimulating bitter taste receptor (Tas2R) signalling in human enteroendocrine cells (Hutu80, intracellular calcium)	EC 50 [µg/mL]
CC(C)=CCC1=C(O)C(O)(CC=C(C)C)C(=O)C(C(=O)C(C)C)=C1O (stereo not drawn) [Cohumulone, cohumulone]	activity at the lowest concentration	1.153 (≈ 3.31 µM)
CC(C)=CCC1=C(O)C(C(=O)C(C)C)=C(O)C(CC=C(C)C)(CC=C(C)C)C1=O [Colupulone, colupulone]	–	12.72 (≈ 31.8 µM)
